Where “and” joins values, the source holds several entries; their conditions need not be identical. Equal entries are not always repeated. Toxic doses and inconclusive results are not listed.
System: P388 leukemia ip, CD2F1 mice, survival T/C
Assay: NCI In Vivo Anticancer Drug Screen. Data for tumor model P388 Leukemia (intraperitoneal) in CD2F1 (CDF1) mice
Conditions: endpoint: median survival time, higher = longer survival
In short: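 Mice carrying the transplanted tumor received test compound or vehicle. Survival was recorded in each group, and the value is the treated-group measurement divided by that of the vehicle-treated control group.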

Compound: COc1cccc2c1C(=O)c1c(O)c3c(c(O)c1C2=O)C[C@@](O)(C(C)=O)C[C@@H]3OC1CC(N)C(O)C(C)O1 (stereo partly specified)
- T/C (dose: 0.06 mg/kg/injection, schedule: Q01DX009 (ip), vehicle: water): 104 % of control and 118 % of control
- T/C (dose: 0.06 mg/kg/injection, schedule: Q03HX008 (ip), vehicle: saline): 118 % of control
- T/C (dose: 0.08 mg/kg/injection, schedule: Q01DX005 (ip), vehicle: saline): 118 % of control
- T/C (dose: 0.12 mg/kg/injection, schedule: Q01DX005 (ip), vehicle: water): 114 % of control
- T/C (dose: 0.13 mg/kg/injection, schedule: Q03HX008 (ip), vehicle: saline): 120 % of control
- T/C (dose: 0.16 mg/kg/injection, schedule: Q01DX005 (ip), vehicle: saline): 150 % of control and 167 % of control
- T/C (dose: 0.16 mg/kg/injection, schedule: Q01DX009 (ip), vehicle: saline): 168 % of control
- T/C (dose: 0.21 mg/kg/injection, schedule: Q01DX009 (ip), vehicle: water): 150 % of control
- T/C (dose: 0.25 mg/kg/injection, schedule: Q01DX005 (ip), vehicle: water): 112 % of control
- T/C (dose: 0.25 mg/kg/injection, schedule: Q04DX003 (ip), vehicle: saline): 100 % of control
- T/C (dose: 0.32 mg/kg/injection, schedule: Q01DX001 (ip), vehicle: saline): 150 % of control
- T/C (dose: 0.32 mg/kg/injection, schedule: Q01DX005 (ip), vehicle: saline): 175 % of control
- T/C (dose: 0.32 mg/kg/injection, schedule: Q01DX009 (ip), vehicle: saline): 166 % of control
- T/C (dose: 0.32 mg/kg/injection, schedule: Q03HX040 (ip), vehicle: saline): 116 % of control
- T/C (dose: 0.39 mg/kg/injection, schedule: Q01DX009 (ip), vehicle: saline): 172 % of control
- T/C (dose: 0.42 mg/kg/injection, schedule: Q01DX009 (ip), vehicle: water): 150 % of control and 155 % of control
- T/C (dose: 0.5 mg/kg/injection, schedule: Q01DX001 (ip), vehicle: saline): 108 % of control
- T/C (dose: 0.5 mg/kg/injection, schedule: Q01DX005 (ip), vehicle: water): 107 % of control
- T/C (dose: 0.5 mg/kg/injection, schedule: Q01DX005 (oral), vehicle: water): 105 % of control
- T/C (dose: 0.5 mg/kg/injection, schedule: Q01DX010 (ip), vehicle: saline): 163 % of control
- T/C (dose: 0.5 mg/kg/injection, schedule: Q04DX003 (ip), vehicle: saline): 109 % of control
- T/C (dose: 0.63 mg/kg/injection, schedule: Q01DX001 (ip), vehicle: saline): 166 % of control
- T/C (dose: 0.63 mg/kg/injection, schedule: Q01DX009 (ip), vehicle: saline): 171 % of control
- T/C (dose: 0.63 mg/kg/injection, schedule: Q03HX040 (ip), vehicle: saline): 112 % of control
- T/C (dose: 0.64 mg/kg/injection, schedule: Q01DX001 (ip), vehicle: saline): 160 % of control
- T/C (dose: 0.75 mg/kg/injection, schedule: Q04DX003 (ip), vehicle: saline): 110 % of control and 119 % of control
- T/C (dose: 0.83 mg/kg/injection, schedule: Q01DX009 (ip), vehicle: water): 164 % of control and 169 % of control
- T/C (dose: 1.0 mg/kg/injection, schedule: Q01DX001 (ip), vehicle: saline): 115 % of control
- T/C (dose: 1.0 mg/kg/injection, schedule: Q01DX005 (oral), vehicle: water): 102 % of control
- T/C (dose: 1.0 mg/kg/injection, schedule: Q01DX010 (ip), vehicle: saline): 172 % of control
- T/C (dose: 1.0 mg/kg/injection, schedule: Q04DX002 (ip), vehicle: water): 158 % of control
- T/C (dose: 1.0 mg/kg/injection, schedule: Q04DX003 (iv), vehicle: saline): 98 % of control
- T/C (dose: 1.08 mg/kg/injection, schedule: Q01DX009 (ip), vehicle: saline): 172 % of control
- T/C (dose: 1.08 mg/kg/injection, schedule: Q04DX003 (ip), vehicle: saline): 150 % of control and 152 % of control
- T/C (dose: 1.08 mg/kg/injection, schedule: Q04DX003 (ip), vehicle: water): 157 % of control
- T/C (dose: 1.25 mg/kg/injection, schedule: Q01DX001 (ip), vehicle: saline): 154 % of control
- T/C (dose: 1.25 mg/kg/injection, schedule: Q01DX005 (ip), vehicle: saline): 162 % of control
- T/C (dose: 1.25 mg/kg/injection, schedule: Q03HX008 (ip), vehicle: saline): 167 % of control
- T/C (dose: 1.3 mg/kg/injection, schedule: Q01DX001 (ip), vehicle: water): 154 % of control
- T/C (dose: 1.5 mg/kg/injection, schedule: Q04DX003 (ip), vehicle: saline): 116 % of control and 117 % of control
- T/C (dose: 1.67 mg/kg/injection, schedule: Q01DX009 (ip), vehicle: water): 123 % of control
- T/C (dose: 1.8 mg/kg/injection, schedule: Q01DX001 (ip), vehicle: water): 162 % of control
- T/C (dose: 1.8 mg/kg/injection, schedule: Q01DX009 (ip), vehicle: saline): 163 % of control
- T/C (dose: 1.8 mg/kg/injection, schedule: Q04DX003 (ip), vehicle: saline): 154 % of control
- T/C (dose: 1.8 mg/kg/injection, schedule: Q04DX003 (ip), vehicle: water): 160 % of control
- T/C (dose: 2.0 mg/kg/injection, schedule: Q01DX001 (ip), vehicle: saline): 114 % of control
- T/C (dose: 2.0 mg/kg/injection, schedule: Q01DX005 (ip), vehicle: water): 153 % of control
- T/C (dose: 2.0 mg/kg/injection, schedule: Q01DX005 (oral), vehicle: water): 114 % of control
- T/C (dose: 2.0 mg/kg/injection, schedule: Q03HX024 (ip), vehicle: saline): 156 % of control
- T/C (dose: 2.0 mg/kg/injection, schedule: Q04DX003 (iv), vehicle: saline): 102 % of control
- T/C (dose: 2.4 mg/kg/injection, schedule: Q01DX001 (ip), vehicle: water): 163 % of control
- T/C (dose: 2.5 mg/kg/injection, schedule: Q03HX008 (ip), vehicle: saline): 170 % of control
- T/C (dose: 3.0 mg/kg/injection, schedule: Q01DX001 (ip), vehicle: saline): 150 % of control and 153 % of control
- T/C (dose: 3.0 mg/kg/injection, schedule: Q01DX009 (ip), vehicle: saline): 104 % of control
- T/C (dose: 3.2 mg/kg/injection, schedule: Q01DX001 (ip), vehicle: water): 171 % of control
- T/C (dose: 4.0 mg/kg/injection, schedule: Q01DX001 (ip), vehicle: saline): 160 % of control
- T/C (dose: 4.0 mg/kg/injection, schedule: Q01DX004 (ip), vehicle: saline): 99 % of control
- T/C (dose: 4.0 mg/kg/injection, schedule: Q01DX005 (ip), vehicle: water): 164 % of control
- T/C (dose: 4.0 mg/kg/injection, schedule: Q01DX005 (oral), vehicle: water): 104 % of control
- T/C (dose: 4.0 mg/kg/injection, schedule: Q04DX003 (iv), vehicle: saline): 104 % of control and 113 % of control and 121 % of control
- T/C (dose: 4.2 mg/kg/injection, schedule: Q01DX001 (ip), vehicle: water): 174 % of control
- T/C (dose: 4.5 mg/kg/injection, schedule: Q01DX001 (ip), vehicle: saline): 166 % of control
- T/C (dose: 4.5 mg/kg/injection, schedule: Q04DX003 (ip), vehicle: saline): 159 % of control
- T/C (dose: 5.0 mg/kg/injection, schedule: Q01DX001 (ip), vehicle: saline): 159 % of control and 174 % of control
- T/C (dose: 5.0 mg/kg/injection, schedule: Q01DX009 (ip), vehicle: water): 100 % of control
- T/C (dose: 5.0 mg/kg/injection, schedule: Q04DX003 (ip), vehicle: saline): 118 % of control
- T/C (dose: 5.0 mg/kg/injection, schedule: Q04DX003 (ip), vehicle: water): 118 % of control
- T/C (dose: 5.6 mg/kg/injection, schedule: Q01DX001 (ip), vehicle: water): 106 % of control
- T/C (dose: 6.0 mg/kg/injection, schedule: Q04DX003 (ip), vehicle: saline): 122 % of control
- T/C (dose: 7.5 mg/kg/injection, schedule: Q01DX001 (ip), vehicle: water): 116 % of control
- T/C (dose: 8.0 mg/kg/injection, schedule: Q01DX001 (ip), vehicle: saline): 124 % of control
- T/C (dose: 8.0 mg/kg/injection, schedule: Q01DX005 (oral), vehicle: water): 102 % of control
- T/C (dose: 8.0 mg/kg/injection, schedule: Q04DX003 (iv), vehicle: saline): 150 % of control
- T/C (dose: 10.0 mg/kg/injection, schedule: Q01DX009 (ip), vehicle: water): 100 % of control
- T/C (dose: 12.0 mg/kg/injection, schedule: Q04DX003 (ip), vehicle: saline): 150 % of control
- T/C (dose: 12.5 mg/kg/injection, schedule: Q04DX003 (ip), vehicle: saline): 115 % of control
- T/C (dose: 16.0 mg/kg/injection, schedule: Q01DX005 (oral), vehicle: water): 103 % of control
- T/C (dose: 16.0 mg/kg/injection, schedule: Q04DX003 (iv), vehicle: saline): 104 % of control
- T/C (dose: 20.0 mg/kg/injection, schedule: Q01DX009 (ip), vehicle: water): 110 % of control
- T/C (dose: 0.3 micrograms/kg/injection, schedule: Q03HX008 (ip), vehicle: saline): 123 % of control
- T/C (dose: 0.6 micrograms/kg/injection, schedule: Q03HX040 (ip), vehicle: saline): 109 % of control
- T/C (dose: 7.5 micrograms/kg/injection, schedule: Q03HX024 (ip), vehicle: saline): 155 % of control
- T/C (dose: 16.3 micrograms/kg/injection, schedule: Q03HX024 (ip), vehicle: saline): 165 % of control

Compound: O=C(O)c1c(Cl)c(Cl)c(Cl)c(Cl)c1C(=O)OCC1CCCO1 (stereo unspecified)
- T/C (dose: 50.0 mg/kg/injection, schedule: Q01DX009 (ip), vehicle: saline with Tween-80): 90 % of control
- T/C (dose: 100.0 mg/kg/injection, schedule: Q01DX009 (ip), vehicle: saline with Tween-80): 106 % of control
- T/C (dose: 200.0 mg/kg/injection, schedule: Q01DX009 (ip), vehicle: saline with Tween-80): 101 % of control

Source: PubChem BioAssay AID330 (DTP/NCI, 2004)
